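Compound exposure: 48 hours, 5 concentrations, 96-well plates. Abbreviation: GI50, concentration required for 50% inhibition of growth.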 Activity calls are given as the source filed them. Cut-off read from the data, not from the text of the source: active = GI50 up to about 1.1 µM and inactive = higher.
Experiments:
Experiment in all cases: DTP human tumour cell line panel, 48 h
ACHN = tested on: ACHN
IGROV-1 = tested on: IGROV-1
COLO 205 = tested on: COLO 205
HCC 2998 = tested on: HCC 2998
786-0 = tested on: 786-0
OVCAR-4 = tested on: OVCAR-4
CCRF-CEM = tested on: CCRF-CEM
M14 = tested on: M14
OVCAR-5 = tested on: OVCAR-5
SNB-19 = tested on: SNB-19
SK-MEL-2 = tested on: SK-MEL-2
OVCAR-3 = tested on: OVCAR-3
HT-29 = tested on: HT-29
HCT-116 = tested on: HCT-116
NCI-H522 = tested on: NCI-H522
HOP-92 = tested on: HOP-92
UACC-257 = tested on: UACC-257
RPMI-8226 = tested on: RPMI-8226

Measured: GI50

C=C(C)C1CC[C@]2(C(=O)O)CCC3(C)[C@H](CCC4[C@@]5(C)CC[C@H](OC6OC(CO)C(O)C6OC6OC(C)C(O)C(O)C6O)[C@@](C)(CO)C5CC[C@]43C)C12 (stereo not given in full)
inactive: ACHN > 100 µM | IGROV-1 > 100 µM | COLO 205 > 100 µM | HCC 2998 > 100 µM | 786-0 > 100 µM | OVCAR-4 > 100 µM | CCRF-CEM > 100 µM | M14 > 100 µM | OVCAR-5 > 100 µM | SNB-19 > 100 µM | SK-MEL-2 > 100 µM | OVCAR-3 > 100 µM | HT-29 > 100 µM | HCT-116 > 100 µM | NCI-H522 88.1 µM

Cc1cc(NS(=O)(=O)c2ccc(NC(=O)c3ccc(Cl)c4c(Nc5ccc(S(=O)(=O)Nc6cc(C)on6)cc5)c5ccccc5nc34)cc2)no1
inactive: ACHN 19 µM | IGROV-1 21.5 µM | COLO 205 22.4 µM | 786-0 16 µM | HOP-92 19.8 µM | OVCAR-4 34.6 µM | CCRF-CEM 18.8 µM | M14 22.2 µM | UACC-257 20.2 µM | OVCAR-5 21 µM | SNB-19 14.4 µM | SK-MEL-2 20.9 µM | OVCAR-3 16.6 µM | HT-29 19.8 µM | RPMI-8226 27.5 µM | HCT-116 14.2 µM | NCI-H522 11.8 µM

O=C(/C=C/c1ccccc1O)c1cccnc1
inactive: ACHN > 100 µM | IGROV-1 > 100 µM | HCC 2998 > 100 µM | 786-0 > 100 µM | OVCAR-4 > 100 µM | CCRF-CEM > 100 µM | M14 > 100 µM | UACC-257 > 100 µM | OVCAR-5 > 100 µM | SNB-19 > 100 µM | SK-MEL-2 > 100 µM | OVCAR-3 > 100 µM | HT-29 > 100 µM | HCT-116 > 100 µM | NCI-H522 > 100 µM

C(/C=C/N1CCCC1)=C\c1nc(N2CCCC2)c2ccccc2n1
inactive: ACHN 16.9 µM | IGROV-1 21.6 µM | COLO 205 14.4 µM | HCC 2998 17.4 µM | 786-0 16.6 µM | OVCAR-4 13.9 µM | CCRF-CEM 13.2 µM | M14 18 µM | UACC-257 33.2 µM | OVCAR-5 15.6 µM | SNB-19 18.5 µM | SK-MEL-2 22.1 µM | OVCAR-3 15.7 µM | HT-29 20.7 µM | RPMI-8226 17.4 µM | HCT-116 19.7 µM

C1OCC2S[C@@H]3COCO[C@@H]3C2O1 (stereo not given in full)
inactive: ACHN > 100 µM | COLO 205 > 100 µM | HCC 2998 > 100 µM | 786-0 > 100 µM | OVCAR-4 > 100 µM | CCRF-CEM > 100 µM | M14 > 100 µM | UACC-257 > 100 µM | OVCAR-5 > 100 µM | SNB-19 > 100 µM | OVCAR-3 > 100 µM | HT-29 > 100 µM | RPMI-8226 > 100 µM | HCT-116 > 100 µM | NCI-H522 > 100 µM

O=C(O)CSc1nnc(-c2ccccc2)[nH]1
inactive: ACHN > 100 µM | IGROV-1 > 100 µM | COLO 205 > 100 µM | HCC 2998 > 100 µM | 786-0 > 100 µM | OVCAR-4 > 100 µM | CCRF-CEM > 100 µM | M14 > 100 µM | OVCAR-5 > 100 µM | SNB-19 > 100 µM | SK-MEL-2 > 100 µM | OVCAR-3 > 100 µM | HT-29 > 100 µM | RPMI-8226 > 100 µM | NCI-H522 > 100 µM

O=C1O[C@H](C(Cl)(Cl)Cl)N2CCCC12 (stereo not given in full)
inactive: ACHN > 100 µM | IGROV-1 > 100 µM | COLO 205 > 100 µM | 786-0 > 100 µM | HOP-92 > 100 µM | OVCAR-4 > 100 µM | CCRF-CEM > 100 µM | M14 > 100 µM | UACC-257 > 100 µM | OVCAR-5 > 100 µM | SNB-19 > 100 µM | SK-MEL-2 > 100 µM | OVCAR-3 > 100 µM | HT-29 > 100 µM | RPMI-8226 > 100 µM | NCI-H522 > 100 µM

CC(=O)Oc1c(Br)ccc2cc(C(Br)Br)c(C(=O)c3ccccc3)nc12
inactive: ACHN 22.1 µM | IGROV-1 29.1 µM | COLO 205 24.4 µM | HCC 2998 17.9 µM | 786-0 22.6 µM | OVCAR-4 5.01 µM | M14 21.2 µM | UACC-257 1.88 µM | OVCAR-5 17.3 µM | SNB-19 19.9 µM | SK-MEL-2 20.7 µM | OVCAR-3 > 10 µM | HT-29 19.2 µM | RPMI-8226 > 10 µM | HCT-116 21.8 µM | NCI-H522 4.21 µM

Oc1nc(S)nc2c1CCCN2
inactive: ACHN > 100 µM | IGROV-1 > 100 µM | COLO 205 > 100 µM | 786-0 > 100 µM | HOP-92 > 100 µM | CCRF-CEM > 100 µM | M14 > 100 µM | UACC-257 > 100 µM | OVCAR-5 > 100 µM | SNB-19 > 100 µM | SK-MEL-2 > 100 µM | OVCAR-3 > 100 µM | HT-29 > 100 µM | RPMI-8226 > 100 µM | HCT-116 > 100 µM | NCI-H522 > 100 µM

C/C(=N/O)c1sc(-c2nc(C)c(/C(C)=N\O)s2)nc1C
inactive: ACHN > 100 µM | IGROV-1 > 100 µM | COLO 205 > 100 µM | HCC 2998 > 100 µM | 786-0 > 100 µM | HOP-92 > 100 µM | OVCAR-4 > 100 µM | CCRF-CEM > 100 µM | M14 > 100 µM | UACC-257 > 100 µM | SNB-19 > 100 µM | OVCAR-3 > 100 µM | HT-29 > 100 µM | RPMI-8226 > 100 µM | HCT-116 > 100 µM

COC(=O)C1C=NNC1C(=O)OC (stereo not given)
inactive: ACHN > 100 µM | IGROV-1 > 100 µM | COLO 205 > 100 µM | HCC 2998 > 100 µM | 786-0 > 100 µM | OVCAR-4 > 100 µM | CCRF-CEM > 100 µM | M14 > 100 µM | UACC-257 > 100 µM | OVCAR-5 > 100 µM | SNB-19 57.3 µM | SK-MEL-2 > 100 µM | OVCAR-3 > 100 µM | HT-29 > 100 µM | RPMI-8226 > 100 µM | HCT-116 > 100 µM | NCI-H522 > 100 µM

Cn1c2c(c3ccccc31)CCN(CCCCN1CCN(c3cccc(Cl)c3)CC1)C2=O
inactive: ACHN 14.9 µM | IGROV-1 15.9 µM | COLO 205 2.91 µM | 786-0 13 µM | HOP-92 15.2 µM | OVCAR-4 14.9 µM | CCRF-CEM 9.86 µM | M14 3.3 µM | UACC-257 7.03 µM | OVCAR-5 4.56 µM | SNB-19 17.7 µM | SK-MEL-2 16.7 µM | OVCAR-3 15.5 µM | HT-29 2.79 µM | RPMI-8226 5.66 µM | HCT-116 6.65 µM | NCI-H522 12.3 µM
